Results taken from patent US6335019B1, “Methods for treating sensitivity to protein allergen using peptides which include a T cell epitope recognized by a T cell receptor specific for the protein allergen” (Immulogic Pharmaceutical Corp., priority 1989, dated 2002).

How the values were obtained:
[1] = system: ragweed pollen-specific T cells of ragweed allergic patients; test: Secondary and tertiary T cell proliferation assays of a panel of ragweed allergic patients with synthetic peptides; assay type: cell-based, human; conditions: for Stimulation of ragweed allergic patient T cells by synthetic peptide (in words): in vitro proliferation assays; for NUMBER POSITIVE (patients with T cell response to peptide) / POSITIVE % (patients whose T cells are stimulated by peptide): positive = T cell proliferative response greater than 2-fold above culture medium control
Protocol: (§1) Peripheral blood mononuclear cells (PBMC) were purified from 60 ml of heparinized blood from ragweed-allergic patients. PBMC were subsequently treated as described below, although in individual cases, the length of time of cultivation with IL-2 and IL-4 and the specific ragweed proteins and peptides used for stimulation varied. As an example, ten ml of patient 222 PBMC at 10^6/ml were cultured at 37° C. for 7 days in the presence of 20 micrograms aqueous ragweed pollen extract/ml RPMI-1640 supplemented with 5% pooled human AB serum. Viable cells were purified by Ficoll-Hypaque centrifugation and cultured for three weeks at 5 units recombinant human IL-2/ml and 5 units recombinant human IL-4/ml. The resting T cells were then restimulated (secondary) with 20 micrograms aqueous ragweed pollen extract/ml at a density of 2×10^5 cells/ml in the presence of X-irradiated (3500 RADS) autologous PBMC (5×10^5/ml) for three days, purified by Ficoll-Hypaque centrifugation and grown in 5 units IL-2/ml and 5 units IL-4/ml for two weeks. For assay, 2×10^4 resting secondary T cells were restimulated (tertiary) in the presence of 5×10^4 X-irradiated (3500 RADS) autologous PBMC or 2×10^4 autologous Epstein-Barr virus-transformed B cells (20,000 RADS) with various concentrations of allergen or their fragments in a volume of 200 microliters in 96-well round bottom assay plates for 3 days. Each well then received 1 microCurie tritiated (methyl) thymidine for 16 hours. The counts incorporated were collected onto glass fiber filters and processed for liquid scintillation counting. […] Antigens used: IPC aqueous pollen extract (pollen), Hollister-Stier ragweed skin test extract (RWST), ALK cat epithelium skin test extract (CST), affinity 4B5/B7 antibody purified (dialyzed) Amb a I (B7), and chromatographically purified Amb a I and (Amb a I). Medium only control is shown as a line with no symbol. Alternatively, PBMC were sometimes carried only into a secondary assay (as outlined above for a tertiary assay) with 20 micrograms aqueous pollen extract 7 days, followed by culture in 5 units IL-2/ml and 5 units IL-4/ml for 2-3 weeks. […] Secondary and tertiary assays of a panel of ragweed allergic patients were performed using synthetic peptides derived from the sequences of various ragweed pollen proteins. […] Another four peptides (RAE15.6, RAE3.D, RAE28.1, RAE26.15) which are also derived from the sequence of the same three cDNA's could stimulate 35 to 58% of the patients' T cells. One peptide (RAE4) which is derived from the cDNA of IPC Clone 5 could also stimulate 25% of the patients' T cells. […] By this method it is possible to identify novel therapeutic and diagnostics entities for use in the treatment and the diagnosis of ragweed allergy.

[2] = system: human IgE (ragweed allergic patient sera); test: SDS-PAGE Western blot (and ELISA) of ragweed allergic patient IgE binding to pollen, affinity purified and recombinant Amb a I / Amb a II; set-up: key to IgE binding, summarized Western blot data: −: no signal over background; +−: barely discernable over background; +: clearly positive; ++: strongly positive; +++: highly positive
Protocol: As represented in FIG. 1A, a selected monoclonal antibody (designated 4B5/B7) which recognizes an Amb a I preparation unsubjected to denaturing conditions was used to affinity purify from pollen extract a single protein, which is referred to as affinity purified Amb a I. This was carried out, using known techniques, by producing the desired monoclonal antibody, isolating it in large quantities from ascites and immobilizing it on Sepharose (Pharmacia). Aqueous pollen extract was passed over the monoclonal antibody-containing column and a protein species was eluted.
Furthermore, full-length and truncated cDNAs encoding several members of the Amb a I multigene family, as well as Amb a II, were cloned in-frame into the expression vector pTrc99 (Amann et al. Gene, 69:301-315, (1988)) and transformed into the JM109 host. Expression of recombinant Amb a I and Amb a II protein was induced by 1 mM isopropyl-β-D-thiogalactopyranoside, cells were harvested, lysozyme treated, sonicated and insoluble inclusion bodies recovered by a low speed centrifugation. Recombinant Amb a I and Amb a II protein present in the recovered pellet was solubilized in buffer containing 8M urea, 50 mM Tris HC1 pH8.0, 50 mM NaCl, 1 mM EDTA, 1 mM dithiothreitol, 1 mM phenylmethylsulfonyl fluoride. After solubilization, the crude urea lysate was dialyzed at 4° C. against PBS. […] This antigenic cross-reactivity is consistent with the observed sequence homology of the cDNAs (see FIG. 16).
Comparison of human IgE binding to recombinant Amb a I and Amb a II proteins with anti-peptide and monoclonal anti-Amb a I antibodies have provided data consistent with the conclusion that the N-terminal portion (historically referred to as the β-region) of Amb a IA includes the major IgE eptiope(s).
Affinity purified Amb a I was electrophoresed, Western transferred (Towbin et al., Proc. Natl. Acad. Sci. USA, 76:4350 (1979)) and probed with a variety of antibodies, including IgE from an allergic patient (FIG. 17). In pollen extract Amb a I is not only present as an intact 38-KD species, but also characterized by its component 26KD alpha chains and 12-KD beta chains which are formed by enzymatic cleavage. The intact 38-KD species and the alpha chain are clearly detected using rabbit anti-Amb a I, polyclonal affinity purified anti-RAE 16 and monoclonal anti-Amb a I JBIE3-4 (FIG. 17); RAE 16 peptide has the sequence RTDKDLLENGAIC derived from amino-acids […] of Amb a IB, FIG. 16). Affinity purified Amb a I (partial sequence presented in Table 1) as well as chromatographically purified Amb a II (partial sequence presented in Table 2) are bound on Western blots by these antibodies as well as by patient IgE (FIG. 17). The goat anti-Amb a I polyclonal antibody also binds multiple Amb a I and Amb a II species on a two dimensional Western blot of pollen extract (FIG. 18). The Western blot was performed as outlined below. […]

[3] = system: T cells from patients allergic to ragweed; test: T cell proliferation of ragweed allergic patient T cells to ragweed proteins and recombinant lysates (tritiated thymidine); assay type: cell-based, human
Excerpt: T cells from patients allergic to ragweed, previously stimulated with a mixed ragweed pollen extract, can recognize and proliferate in response to pollen extract, ragweed skin test reagent (RWST), affinity purified Amb a I protein and crude bacterial lysates containing recombinant Amb a I gene products IA, IB and IC (Table 4). […] The use of crude bacterial lysates as antigens precludes a firm conclusion form the negative responses, since the relative levels of recombinant proteins in lysate have not been determined.
as §1

**Q.** What does the source list for ETRRSLKTSGAYNIIDGCWRGKAD [RAE 24.E]?
**A.** Stimulation of ragweed allergic patient T cells by synthetic peptide (in words) [1]: could not stimulate any; NUMBER POSITIVE (patients with T cell response to peptide) [1]: 0; POSITIVE % (patients whose T cells are stimulated by peptide) [1]: 0%

**Q.** Which results are given for “FFPILGGITEVKDNDNSVDFC [RAE 4, synthetic peptide deduced from IPC Clone 5]”?
**A.** Stimulation of ragweed allergic patient T cells by synthetic peptide (in words) [1]: stimulates; Stimulation of ragweed allergic patient T cells by synthetic peptide (in words) ([1]; listed as RAE4): could be stimulated; NUMBER POSITIVE (patients with T cell response to peptide) [1]: 7; POSITIVE % (patients whose T cells are stimulated by peptide) [1]: 25%

**Q.** What does the source list for GFFQVVNNNYDRWGTYA [RAE 26.15]?
**A.** NUMBER POSITIVE (patients with T cell response to peptide) [1]: 14; POSITIVE % (patients whose T cells are stimulated by peptide) [1]: 58%

**Q.** GKADWAENRC [RAE 3.D] was tested. Which “NUMBER POSITIVE (patients with T cell response to peptide)” value (from here on “NUMBER POSITIVE”) [1] did it give?
**A.** Its value is 13.

**Q.** What about the “POSITIVE % (patients whose T cells are stimulated by peptide)” value (from here on “POSITIVE %”) [1] of the same molecule?
**A.** Its value is 37%.

**Q.** What does the source list for LENGAIFVASGVDPVLTPEQ [RAE 28.1]?
**A.** NUMBER POSITIVE (patients with T cell response to peptide) [1]: 17; POSITIVE % (patients whose T cells are stimulated by peptide) [1]: 52%

**Q.** For LNQELVVNSDKTIDGRGVK [RAE 45.15], which “Stimulation of ragweed allergic patient T cells by synthetic peptide (in words)” value [1] is on record?
**A.** The value was “could not stimulate any”.

**Q.** What about the “NUMBER POSITIVE” value [1] of the same molecule?
**A.** Its value is 0.

**Q.** And the “POSITIVE %” value [1]?
**A.** Its value is 0%.

**Q.** Which results are given for RTDKDLLENGAIC [RAE 16.6]?
**A.** Stimulation of ragweed allergic patient T cells by synthetic peptide (in words) [1]: could not stimulate any; NUMBER POSITIVE (patients with T cell response to peptide) [1]: 0; POSITIVE % (patients whose T cells are stimulated by peptide) [1]: 0%

**Q.** For YTVTSDKDDDVANC [RAE 15.6], which “NUMBER POSITIVE” value [1] is on record?
**A.** The value was 7.

**Q.** What about the “POSITIVE %” value [1] of the same molecule?
**A.** The value was 35%.

B1: Amb a IA(t): truncated recombinant Amb a IA, amino acid 70-398, E. coli expressed, used as crude bacterial lysate (protein)
chain: DCAQGFGKGTVGGKDGDIYTVTSELDDDVANPKEGTLRFGAAQNRPLWIIFERDMVIRLDKEMVVNSDKTIDGRGAKVEIINAGFTLNGVKNVIIHNINMHDVKVNPGGLIKSNDGPAAPRAGSDGDAISISGSSQIWIDHCSLSKSVDGLVDAKLGTTRLTVSNSLFTQHQFVLLFGAGDENIEDRGMLATVAFNTFTDNVDQRMPRCRHGFFQVVNNNYDKWGSYAIGGSASPTILSQGNRFCAPDERSKKNVLGRHGEAAAESMKWNWRTNKDVLENGAIFVASGVDPVLTPEQSAGMIPAEPGESALSLTSSAGVLSCQPGAPC
**Q.** How did the “Human IgE binding (in words)” value ([2]; Western blot (FIG. 17) and/or ELISA, ragweed allergic patient IgE) turn out when B1 was run?
**A.** The value was “less well than the full-length Amb a IA”.

**Q.** And the “IgE binding, summarized Western blot data” value ([2]; patient 151)?
**A.** Its value is “−”.

**Q.** And the “IgE binding, summarized Western blot data” value ([2]; patient 222)?
**A.** The value was “+−”.

**Q.** What about the “IgE binding, summarized Western blot data” value ([2]; patient 291) of the same molecule?
**A.** The value was “+”.

**Q.** What about the “IgE binding, summarized Western blot data” value ([2]; patient 295) of the same molecule?
**A.** The value was “+”.

**Q.** What about the “Stimulatory response of human T cells (proliferation compared to medium control)” value ([3]; patient 151 2° (secondary assay)) of the same molecule?
**A.** Its value is “+ (2-4 fold)”.

**Q.** What about the “Stimulatory response of human T cells (proliferation compared to medium control)” value ([3]; patient 222 2° (secondary assay)) of the same molecule?
**A.** The value was “++ (4-10 fold)”.

**Q.** And the “Stimulatory response of human T cells (proliferation compared to medium control)” value ([3]; patient 295 2° (secondary assay))?
**A.** Its value is “+ (2-4 fold)”.

**Q.** What about the “Stimulatory response of human T cells (proliferation compared to medium control)” value ([3]; patient 296 2° (secondary assay)) of the same molecule?
**A.** The value was “+++ (>10 fold)”.

**Q.** And the “Stimulatory response of human T cells (proliferation compared to medium control)” value ([3]; patient 314 2° (secondary assay))?
**A.** The value was “+++ (>10 fold)”.

**Q.** What about the “Stimulatory response of human T cells (proliferation compared to medium control)” value ([3]; patient 316 2° (secondary assay)) of the same molecule?
**A.** The value was “+++ (>10 fold)”.

**Q.** And the “Stimulatory response of human T cells (proliferation compared to medium control)” value ([3]; patient 320 2° (secondary assay))?
**A.** Its value is “++ (4-10 fold)”.

**Q.** What about the “Stimulatory response of human T cells (proliferation compared to medium control)” value ([3]; patient 321 2° (secondary assay)) of the same molecule?
**A.** The value was “++ (4-10 fold)”.
